Here are results for eight molecules from publication PMC10577379, “Isolation of anticancer bioactive secondary metabolites from the sponge-derived endophytic fungi Penicillium sp. and in-silico computational docking approach” (Frontiers in Microbiology, 2023).

For assay [1], the system named is MCF-10A. In words: Cytotoxicity, Cell Counting Kit (CCK-8), normal cell line. It counts as cell-based. Particulars: Homo sapiens, CCK-8, n = 3, unit from Table S1 title. How it is done: (§1) Cytotoxicity was assessed using the Cell Counting Kit (CCK-8) (Dojindo, Japan) method adopted by Wang et al. ([2015a]). Cancer cell lines used in this study included K562, MCF-7, A549, HuH-7, H1975, HeLa, HL7702, DU145, HL60, MOLT-4. Additionally, a normal cell line, MCF10A, was included. All cell lines were procured from Shanghai Cell Bank, Chinese Academy of Sciences. Cells were routinely grown and maintained in RPMI or DMEM media with 10% Fetal Bovine Serum and 1% penicillin/streptomycin. Various concentrations of seven isolated compounds from Penicillium sp. were dissolved in 100% DMSO with a maximum concentration of 200 μg/mL and serially diluted to a final 0.1% DMSO concentration to treat cells for […]. Taxol was used as a positive control, and DMSO was used as a negative control. Cytotoxicity screening assay experiments were conducted in triplicate to obtain the standard error ± mean value. The percentage of cytotoxicity (IC50) alongside the selectivity index was then calculated using the formula:
(§2) IC50=(absorbance of the cell without treatment -absorbance of cells with treatment/ absorbance of the cell without treatment)× 100
(§3) Selective index (SI)=CC50value for normal cells/IC50for cancer cells
On the technique in general: Tetrazolium assays rely on reduction of a dye to a coloured formazan, in cell work by metabolically active cells.

The test system of assay [2] is DU145. The assay is described as follows: Cytotoxicity, Cell Counting Kit (CCK-8). It counts as cell-based. The conditions noted are these: Homo sapiens, DU-145; CCK-8, mean ± SD, n = 3; unit from b62 and Table S1 title (there headed MIC). The procedure: as §1, §2, §3
Assay [3] deals with MCF-7. The assay is described as follows: Cytotoxicity, Cell Counting Kit (CCK-8). Particulars: Homo sapiens, MCF7; CCK-8, mean ± SD, n = 3; unit from b62 and Table S1 title (there headed MIC). Type of assay: cell-based. How it is done:
as §1, §2, §3

The test system of assay [4] is H1975. The assay is described as follows: Cytotoxicity, Cell Counting Kit (CCK-8). Particulars: Homo sapiens, NCI-H1975; CCK-8, mean ± SD, n = 3; unit from b62 and Table S1 title (there headed MIC). Type of assay: cell-based. The procedure:
as §1, §2, §3

In assay [5] the test system is HeLa. In words: Cytotoxicity, Cell Counting Kit (CCK-8). Type of assay: cell-based. The conditions noted are these: Homo sapiens, CCK-8, mean ± SD, n = 3, unit from b62 and Table S1 title (there headed MIC). How it is done:
as §1, §2, §3

The subject of assay [6] is Huh-7. In words: Cytotoxicity, Cell Counting Kit (CCK-8). It counts as cell-based. Particulars: Homo sapiens, CCK-8, mean ± SD, n = 3, unit from b62 and Table S1 title (there headed MIC). The procedure: as §1, §2, §3
The test system of assay [7] is A549. The assay is described as follows: Cytotoxicity, Cell Counting Kit (CCK-8). It counts as cell-based. Particulars: Homo sapiens, CCK-8, mean ± SD, n = 3, unit from b62 and Table S1 title (there headed MIC). How it is done:
as §1, §2, §3

Assay [8] has as its system K562. The assay is described as follows: Cytotoxicity, Cell Counting Kit (CCK-8). It counts as cell-based. Particulars: Homo sapiens, CCK-8, mean ± SD, n = 3, unit from b62 and Table S1 title (there headed MIC). How it is done: as §1, §2, §3
Assay [9] relates to HL7702. In words: Cytotoxicity, Cell Counting Kit (CCK-8). Particulars: Homo sapiens, L02; CCK-8, mean ± SD, n = 3; unit from b62 and Table S1 title (there headed MIC). It counts as cell-based. The procedure:
as §1, §2, §3

Assay [10] has as its system MOLT-4. In words: Cytotoxicity, Cell Counting Kit (CCK-8). The conditions noted are these: Homo sapiens, CCK-8, mean ± SD, n = 3, unit from b62 and Table S1 title (there headed MIC). It counts as cell-based. The procedure:
as §1, §2, §3

The subject of assay [11] is cancer cell lines. The assay is described as follows: Anticancer screening, whole cell line panel. Particulars: in-vitro screening, tested cell lines, in words. Type of assay: cell-based. The procedure:
as §1, §2, §3

The test system of assay [12] is HL60 cells. In words: Cytotoxicity, Cell Counting Kit (CCK-8). Type of assay: cell-based, human. Particulars: for IC50: Homo sapiens; for anticancer activity toward HL60 cells: in words. The procedure:
as §1, §2, §3

The subject of assay [13] is K562 cell lines. Set-up: method as in Hong et al., 2007. The conditions noted are these: averufin from Penicillium flavidorsum SHK1-27; ref Hong et al., 2007; cited from earlier work.
Assay [14] has as its system Mycobacterium tuberculosis H37Ra (ATCC 25177). In words: Anti-tuberculosis assay (MIC). It counts as cell-based. The conditions noted are these: M. tuberculosis H37Ra, read-out: Antitubercular activity MIC. The procedure: The H37Ra strain of Mycobacterium tuberculosis (ATCC 25177) purchased from the American Type Culture Collection (ATCC) was used in the anti-TB bioassay. The anti-tuberculosis assay was based on the one used by Wang et al. ([2015b]). INH (Isoniazid) was used as the positive control, and DMSO was used as a negative control. For the minimum inhibitory concentration (MIC) analysis, 100 μl of Mycobacterium suspension was prepared in a 96-well microtiter plate. A total of […] of double serial dilution of various concentrations of 7 isolated compounds (from 0.08 to 20 μg/mL) alongside the positive control isoniazid (1 to 417 μg/mL) was added to the well.

Assay [15] concerns Escherichia coli (CGMCC 1.2385). In words: Antimicrobial assay (MIC). Type of assay: cell-based. Particulars: CGMCC1, 37°C, 24 h.
In assay [16] the test system is Staphylococcus aureus (CGMCC 1.230). The assay is described as follows: Antimicrobial assay (MIC). It counts as cell-based. The conditions noted are these: CGMCC1, 37°C, 24 h, read-out: MIC S. aureus.
Assay [17] deals with SGC-7901 cell line. Set-up: method as in Yang et al., 2009. Particulars: in words; ref Yang et al., 2009; cited from earlier work.
Setting [18] is: HL-60, CCK-8, mean ± SD, n = 3, unit from b62 and Table S1 title (there headed MIC), read-out: IC50 HL60.

In brackets after ≈: the same amount, converted by molar mass. Entries after “also recorded” stand apart in the source; their conditions may differ. Like-named read-outs stand apart in the source and are kept apart here.

The MIC is the lowest concentration found to suppress growth. Turning to `CC12CCCC(O1)c1c(cc3c(c1O)C(=O)c1c(O)cc(O)cc1C3=O)O2` (stereo not drawn) [Compound 1, averufin], the IC50 in [1] was not below 50 µM; in assay [2], 91.2 ± 0.01 µM; in [3], 6.71 ± 0.01 µM; in assay [4], 8.64 ± 0.01 µM; in assay [5], 8.11 ± 0.01 µM; in assay [6], 3.13 ± 0.01 µM. The IC50 in assay [7] is 76.1 ± 0.01 µM; in assay [8] it was 17.4 ± 0.01 µM; in assay [9] it was 3.57 ± 0.01 µM; in assay [10], 5.77 ± 0.01 µM; in assay [12] (HL-60, read-out: IC50 concentration, HL60 cell lines) it was 1 µM; in assay [12] (setting [18]), 1 µM. For the same molecule, the “anticancer effect against cancer cell lines” value in assay [11] is “significant anticancer effect”. Also, the “anticancer activity toward HL60 cells” value in assay [12] was “strong anticancer activity”. In addition, the “MIC, antitumor activity toward K562 cell lines” value in [13] is 72.4 µM (≈ 26.7 µg/mL). Further, the MIC in assay [14] is more than 50 µM.

Regarding `COC(=O)c1cc(O)cc(OC)c1C(=O)c1c(O)cc(C)cc1O` [Compound 3, sulochrin], the MIC in assay [14] was more than 50 µM.

For `O=C(O)c1cn(C2CC2)c2cc(N3CCNCC3)c(F)cc2c1=O` [ciprofloxacin, Ciprofloxacin], the minimum inhibitory concentration (MIC) in assay [15] is 0.19 µM (≈ 0.063 µg/mL); in assay [16], 2.96 µM (≈ 0.981 µg/mL).

Turning to `CCCCC[C@@H](c1ccc(Oc2cc(C)cc(O)c2)cc1)c1c(O)cc2c(c1O)C(=O)c1cc(O)cc(O)c1C2=O` [Compound 2, aspergilol-A], in assay [14], the MIC was more than 50 µM.

In the case of `NNC(=O)c1ccncc1` [INH, Isoniazid, reference compound], in assay [14], the minimum inhibitory concentration (MIC) is 3.98 µM (≈ 0.546 µg/mL).

With `COc1cc(O)cc2c1C(=O)c1c(O)cc(C)cc1C2=O` [Compound 5, methyl emodin], the IC50 is not below 50 µM in assay [1]; 101.4 ± 0.01 µM in assay [2]; 54.3 ± 0.01 µM in assay [3]; 43.5 ± 0.01 µM in assay [4]; 24.9 ± 0.01 µM in assay [5]; 25.1 ± 0.01 µM in [6]. Also, the IC50 in [7] was 81.3 ± 0.01 µM; in [8] it was 16.3 ± 0.01 µM; in [9], 67.2 ± 0.01 µM; in assay [10], 13.6 ± 0.01 µM; in assay [12] (setting [18]), 13.2 ± 0.01 µM. The “anticancer effect against the SGC-7901 cell line” value in assay [17] was “moderate anticancer effect”. In addition, in assay [11], the “anticancer effect against cancer cell lines” value is listed as “significant anticancer effect; also recorded: weak anticancer effect”. Moreover, the “anticancer activity toward HL60 cells” value in [12] is given as “moderate activity”. The MIC in assay [14] is more than 50 µM.

On to `CC(=O)O[C@H]1C(=O)[C@@]2(C)[C@H]([C@H](OC(=O)c3ccccc3)[C@]3(O)C[C@H](OC(=O)[C@H](O)[C@@H](NC(=O)c4ccccc4)c4ccccc4)C(C)=C1C3(C)C)[C@]1(OC(C)=O)CO[C@@H]1C[C@@H]2O` [Taxol, reference compound], for which the IC50 in [1] is not below 50 µM; in assay [2], 0.015 ± 0.01 µM; in assay [3], 0.002 µM; in assay [4] it was 0.014 ± 0.01 µM; in [5], 0.003 µM; in assay [6], 0.003 µM. The IC50 in assay [7] was 0.024 ± 0.01 µM; in assay [8], 0.003 µM; in [9] it was 0.003 µM; in [10], 0.003 µM; in assay [12] (setting [18]) it was 0.002 µM.

For `Cc1cc(O)cc(Oc2cc(C)cc(O)c2)c1` [Compound 7, diorcinol], the MIC in assay [14] was more than 50 µM.
